We go through six molecules from patent US20020039787A1, “Method for culturing cells” (priority 2000, published 2002).

Assay [1] deals with human myometrial microvascular endothelial cells (MEC). Briefly: Endothelial cell proliferation assay (CellTitre 96 MTS bioassay). It counts as cell-based. To be noted: for effect of cAMP promoter on bFGF-stimulated MEC proliferation: IBMX 330 μM, dibutyryl cAMP 50 μM; for growth factor-stimulated MEC proliferation with combinations of HS and FCS in the medium: compared with HS alone (FIG. 3B); for dose dependence of stimulated MEC proliferation: concentration range 0.01-20 ng/ml (FIG. 6); for EC50 of growth factor-induced MEC proliferation: 6 days, absorbance as % of maximal response; for stimulation of MEC proliferation by maximal concentrations of growth factors: P5 MEC, M199 with 20% HS, 6 days (FIG. 5). The procedure:
The CellTitre 96 MTS tetrazolium-based bioassay (Promega, Madison, WT, USA), where the absorbance of the formazan product is directly proportional to the number of viable cells, was used to indirectly measure cell number after incubation of MEC with various mitogens. It was initially established that the MTS bioassay was linear from 0-2 ×10^4 MEC/well. MEC in basal M199 medium (M199 medium containing 5% PCS, 2 mM glutamine, antibiotic/antimycotic mixture) were seeded in triplicate onto fibronectin (10 μg/ml) coated wells of 96 well plates at 2000 cells/well and allowed to attach the quiesce for 36 hours at 37° C. in 5% CO2/air. Medium was replaced with the standard or complex M199 culture medium (day 0) with or without the following growth factors: 10 ng/ml vascular endothelial growth factor (VEGF121;gift from Dr J Abrahams, Scios Inc, Sunnyvale, Calif., USA), 0.01-20 ng/ml VEGF165 (R & D Systems, Minneapolis, Minn., USA) bFGF (0.01-10 ng/ml), 120 μg/ml EC growth factor (ECGF; Boehringer Mannheim) 50 ng/ml epidermal growth factor (EGF; R & D Systems), depending on the assay conditions being tested. In some experiments different concentrations of HS and FCS and combinations of both were tested and in other experiments various component of the complex medium were omitted. Cells were incubated at 37° C. in 5% CO2/air for 6 or 10 days, with medium changes every 2 days. Twenty μl 3-(4,5-dimethylthiazol-2-yl)-5-(3-carboxymethoxyphenyl)-2-(4sulphophenyl)-2H-tetrazolium (MTS) was added to the cells and incubated 2 hours at 37° C. and absorbance measured at 490 nm using a plate reader (Emax, Molecular Devices, Sunnyvale, Calif., USA). Absorbance was also measured on day 0 and this value subtracted from all results to determine MEC growth over 6 days.

Assay [2] has the same test system. Briefly: MEC migration assay (monolayer wound assay). Type of assay: cell-based. Details: key to migration of MEC into denuded area, Early Passage MEC (P4) / migration of MEC into denuded area, Late Passage MEC (P12): +/−: very low; +: low; ++: medium; +++: high coverage of the denuded area. As to conditions: for migration of MEC in response to growth factor: 48 hour incubation in basal medium, high and low passage MEC; for migration of MEC into denuded area, Early Passage MEC (P4) / migration of MEC into denuded area, Late Passage MEC (P12): semi-quantitative coverage of denuded area after wounding, basal medium. The procedure:
[…] The medium was changed to basal medium, the MEC monolayers wounded using a plastic pasteur pipette and photographed using a Zeiss inverted phase contrast microscope. Duplicate wells were incubated with or without VEGF165 (10 ng/ml) or bFGF (5 ng/ml) in the presence and absence of 40 μg/ml rabbit anti human VEGF antibody (Gargett et al., 1999) or 50 μg/ml goat anti-human bFGF antibody (R & D Systems) respectively for 48 hours at 37° C. in 5% CO/air and the same field of view was rephotographed.
A characteristic feature of EC is their ability to migrate in response to certain growth factors (Goodman et al., 1985; Ferrara and DavisSmyth, 1997). The migration of early and late passage myometrial MEC in response to bFGF and VEGF was examined using the monolayer wound assay (Goodman el al., 1985) in the presence and absence of neutralising bFGF and VEGF antibodies.

[3] abbreviates: over 10 days, 5 ng/ml bFGF, 15% HS/5% FCS (FIG. 4).
Where [4] appears, read: early (low) passage MEC (P1, P2, P3).
The mark [5] stands for this setting: late (high) passage MEC (P10, P13).

In the case of `CC(C)Cn1c(=O)n(C)c(=O)c2[nH]cnc21` [IBMX, 3-isobutyl-1-methyl xanthine, reference compound], in assay [1] (setting [3]), the “effect of cAMP promoter on bFGF-stimulated MEC proliferation” value is “significantly greater proliferation of myometrial MEC over 10 days in the absence”.
For the molecule “vascular endothelial growth factor [VEGF]”, in assay [2], the “migration of MEC in response to growth factor” value was “migrated into the denuded area to a comparable extent”; the “migration of MEC into denuded area, Early Passage MEC (P4)” value is listed as “+++”; the “migration of MEC into denuded area, Late Passage MEC (P12)” value was “+++”. In assay [1], the “growth factor-stimulated MEC proliferation with combinations of HS and FCS in the medium” value is given as “even greater levels of MEC proliferation”; the “dose dependence of stimulated MEC proliferation” value is “dose dependent manner”. Also, the “EC50 of growth factor-induced MEC proliferation” value (from here on “EC50”) in assay [1] (setting [4]) was roughly 1.5 ng/mL. In assay [1] (high passage MEC, n=2), the “difference in absorbance between maximal and minimal response measured at day 6” value (shortened to “difference”) came out at 0.70. For the same molecule, the “EC50” value in assay [1] (setting [5]) is roughly 1.6 ng/mL. Further, the “difference” value in assay [1] (low passage MEC, n=3) is 0.51 ±0.09.
Regarding `CCCC(=O)Nc1ncnc2c1ncn2[C@@H]1O[C@@H]2COP(=O)(O)O[C@H]2[C@H]1OC(=O)CCC` [dibutyryl cAMP, N-6, 2 ′-O-dibutyryl adenosine 3′,5′-cyclic monophosphate, reference compound], the “effect of cAMP promoter on bFGF-stimulated MEC proliferation” value in assay [1] (after 5 days, 5 ng/ml bFGF (FIG. 4)) is reported as “greater growth was observed in the absence”; in assay [1] (setting [3]), “significantly greater proliferation of myometrial MEC over 10 days in the absence”.
Turning to “EGF: epidermal growth factor (R & D Systems) (NSDSECPLSHDGYCLHDGVCMYIEALDKYACNCVVGYIGERCQYRDLKWWELR; Epidermal growth factor; UniProt P01133 971-1023, looked up)”, the “stimulation of MEC proliferation by maximal concentrations of growth factors” value in assay [1] is recorded as “weakly mitogenic”.
As for `C[C@]12CCC(=O)C=C1CC[C@@H]1[C@@H]2[C@@H](O)C[C@@]2(C)[C@H]1CC[C@]2(O)C(=O)CO` [Hydrocortisone, hydrocortisone, reference compound], in assay [1] (in the presence or absence of IBMX or dibutyryl cAMP (results not shown)), the “effect on bFGF-induced myometrial MEC proliferation” value was “no significant effect”.
Take “bFGF: mitogen, growth factor (Gibco BRL)”: in assay [2], the “migration of MEC in response to growth factor” value is listed as “migrated into the denuded area to a comparable extent”; the “migration of MEC into denuded area, Early Passage MEC (P4)” value was “+++”; the “migration of MEC into denuded area, Late Passage MEC (P12)” value is “++”. For the same molecule, in assay [1], the “stimulation of MEC proliferation by maximal concentrations of growth factors” value is “maximal stimulation of MEC proliferation”; the “growth factor-stimulated MEC proliferation with combinations of HS and FCS in the medium” value was “even greater levels of MEC proliferation”; the “dose dependence of stimulated MEC proliferation” value is reported as “dose dependent manner”. Besides, in assay [1] (setting [4]), the “EC50” value is roughly 0.6 ng/mL. Besides, the “difference” value in assay [1] (high passage MEC, n=2) was determined as 0.82. The “EC50” value in assay [1] (setting [5]) was roughly 0.9 ng/mL. Besides, the “difference” value in assay [1] (low passage MEC, n=3) was found to be 0.50 ±0.07.
